Laboratory results taken from US7795261B2, “Substituted 1-piperidin-4-yl-4-pyrrolidin-3-yl-piperazine derivatives and their use as neurokinin antagonists” (Janssen Pharmaceutica NV, priority 2002, dated 2010).

Tests used:
Format in all cases: cell-based
NK1 = NK1 (Homo sapiens, UniProt P25103); assay: Signal transduction (ST), intracellular Ca++ (FLIPR), NK1 antagonistic activity; conditions: read-out: pIC50 NK1 (converted)
Summary of the method: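 Antagonist IC50 was fitted by non-linear regression of peak intracellular Ca++ signals measured on FLIPR after agonist challenge. Beforehand, Fluo3-loaded confluent cells received antagonists over a concentration range for 20 min at room temperature in Ca++ Krebs buffer, pH 7.4.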

NK2 = target: T1, NK2 (Homo sapiens, UniProt P21452); assay: Signal transduction (ST), intracellular Ca++ (FLIPR), NK2; conditions: read-out: pIC50 NK2 (converted)
T1 sequence (P21452 1-398): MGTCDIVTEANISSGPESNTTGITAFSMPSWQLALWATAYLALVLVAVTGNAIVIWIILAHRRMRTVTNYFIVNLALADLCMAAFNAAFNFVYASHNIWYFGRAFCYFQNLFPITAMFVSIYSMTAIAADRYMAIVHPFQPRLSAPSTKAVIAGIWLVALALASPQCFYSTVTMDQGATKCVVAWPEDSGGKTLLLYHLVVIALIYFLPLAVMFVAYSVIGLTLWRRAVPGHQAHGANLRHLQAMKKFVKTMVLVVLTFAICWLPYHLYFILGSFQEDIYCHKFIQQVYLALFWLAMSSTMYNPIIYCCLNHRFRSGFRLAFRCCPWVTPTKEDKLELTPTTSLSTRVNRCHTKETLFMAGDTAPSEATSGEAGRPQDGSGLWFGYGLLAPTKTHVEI

NK3 = target: T2, NK3 (Homo sapiens, UniProt P29371); assay: Signal transduction (ST), intracellular Ca++ (FLIPR), NK3; conditions: read-out: pIC50 NK3 (converted)
T2 sequence (P29371 1-465): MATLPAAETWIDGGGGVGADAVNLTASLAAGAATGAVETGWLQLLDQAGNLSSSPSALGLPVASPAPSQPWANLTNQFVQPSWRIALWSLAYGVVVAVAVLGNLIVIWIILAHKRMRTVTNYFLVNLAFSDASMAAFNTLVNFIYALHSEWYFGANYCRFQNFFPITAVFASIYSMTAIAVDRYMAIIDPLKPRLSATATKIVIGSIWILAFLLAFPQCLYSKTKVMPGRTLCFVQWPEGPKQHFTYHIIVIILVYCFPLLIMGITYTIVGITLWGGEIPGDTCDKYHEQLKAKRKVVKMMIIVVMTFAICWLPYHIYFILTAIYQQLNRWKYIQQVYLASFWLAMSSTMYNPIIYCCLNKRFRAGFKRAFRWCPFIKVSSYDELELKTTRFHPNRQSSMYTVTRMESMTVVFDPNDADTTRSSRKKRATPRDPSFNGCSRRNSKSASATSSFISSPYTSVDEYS

Sequence of NK1 (P25103 whole entry): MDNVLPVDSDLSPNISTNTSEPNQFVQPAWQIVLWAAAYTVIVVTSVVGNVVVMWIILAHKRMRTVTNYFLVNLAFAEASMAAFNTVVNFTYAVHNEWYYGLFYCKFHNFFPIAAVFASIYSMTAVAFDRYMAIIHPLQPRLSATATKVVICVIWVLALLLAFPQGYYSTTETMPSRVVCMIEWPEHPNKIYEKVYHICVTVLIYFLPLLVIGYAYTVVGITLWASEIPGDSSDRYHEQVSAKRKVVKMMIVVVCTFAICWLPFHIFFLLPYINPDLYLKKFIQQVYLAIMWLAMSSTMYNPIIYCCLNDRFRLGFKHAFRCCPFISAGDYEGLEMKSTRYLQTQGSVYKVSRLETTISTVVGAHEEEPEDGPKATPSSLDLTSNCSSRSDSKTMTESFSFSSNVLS

O=C(c1cccs1)N1CC[C@H](N2CCN([C@H]3CCN(C(=O)c4cc(C(F)(F)F)cc(C(F)(F)F)c4)[C@H](Cc4ccccc4)C3)CC2)C1 [Compound 322]
IC50 (NK1): 7.94 nM
IC50 (NK2): 3980 nM
IC50 (NK3): 631 nM

O=C(c1cnccn1)N1CC[C@H](N2CCN([C@H]3CCN(C(=O)c4cc(C(F)(F)F)cc(C(F)(F)F)c4)[C@H](Cc4ccc(Cl)c(Cl)c4)C3)CC2)C1 [Compound 323]
IC50 (NK1): 10 nM
IC50 (NK2): 1260 nM
IC50 (NK3): 316 nM

O=C(c1cc(C(F)(F)F)cc(C(F)(F)F)c1)N1CC[C@H](N2CCN([C@H]3CCN(C(=O)n4ccnc4)C3)CC2)C[C@H]1Cc1ccc(Cl)c(Cl)c1 [Compound 324]
IC50 (NK1): 6.31 nM
IC50 (NK2): 200 nM
IC50 (NK3): 398 nM

O=C(c1ccsc1)N1CC[C@H](N2CCN([C@H]3CCN(C(=O)c4cc(C(F)(F)F)cc(C(F)(F)F)c4)[C@H](Cc4ccc(Cl)c(Cl)c4)C3)CC2)C1 [Compound 325]
IC50 (NK1): 15.8 nM
IC50 (NK2): 398 nM
IC50 (NK3): 631 nM

O=C(c1ccoc1)N1CC[C@H](N2CCN([C@H]3CCN(C(=O)c4cc(C(F)(F)F)cc(C(F)(F)F)c4)[C@H](Cc4ccc(Cl)c(Cl)c4)C3)CC2)C1 [Compound 326]
IC50 (NK1): 15.8 nM
IC50 (NK2): 501 nM
IC50 (NK3): 501 nM

O=C(c1ccccc1O)N1CCC(N2CCN([C@H]3CCN(C(=O)c4cc(C(F)(F)F)cc(C(F)(F)F)c4)[C@H](Cc4ccccc4)C3)CC2)C1 (stereo partly drawn) [Compound 327]
IC50 (NK1): 6.31 nM
IC50 (NK2): 3980 nM
IC50 (NK3): 2000 nM

COc1ccc(S(=O)(=O)N2CCC(N3CCN([C@H]4CCN(C(=O)c5cc(C(F)(F)F)cc(C(F)(F)F)c5)[C@H](Cc5ccccc5)C4)CC3)C2)s1 (stereo partly drawn) [Compound 328]
IC50 (NK1): 6.31 nM
IC50 (NK2): 631 nM
IC50 (NK3): 6310 nM

O=C(c1cccc(O)c1)N1CCC(N2CCN([C@H]3CCN(C(=O)c4cc(C(F)(F)F)cc(C(F)(F)F)c4)[C@H](Cc4ccccc4)C3)CC2)C1 (stereo partly drawn) [Compound 332]
IC50 (NK1): 5.01 nM
IC50 (NK2): 1580 nM
IC50 (NK3): 3160 nM

O=C(C(O)c1ccccc1Cl)N1CCC(N2CCN([C@H]3CCN(C(=O)c4cc(C(F)(F)F)cc(C(F)(F)F)c4)[C@H](Cc4ccccc4)C3)CC2)C1 (stereo partly drawn) [Compound 334]
IC50 (NK1): 31.6 nM
IC50 (NK2): 5010 nM
IC50 (NK3): 7940 nM

O=C(c1ccsc1)N1CCC(N2CCN(C3CCN(C(=O)c4cc(C(F)(F)F)cc(C(F)(F)F)c4)C(Cc4cc(F)cc(F)c4)C3)CC2)C1 (stereo not drawn) [Compound 337]
IC50 (NK1): 39.8 nM
IC50 (NK2): 3160 nM
IC50 (NK3): 1260 nM

O=C(C1CC1)N1CCC(N2CCN(C3CCN(C(=O)c4cc(C(F)(F)F)cc(C(F)(F)F)c4)C(Cc4cc(F)cc(F)c4)C3)CC2)C1 (stereo not drawn) [Compound 340]
IC50 (NK1): 50.1 nM
IC50 (NK2): 6310 nM
IC50 (NK3): 6310 nM

O=C(c1ccc(O)cc1)N1CCC(N2CCN([C@H]3CCN(C(=O)c4cc(C(F)(F)F)cc(C(F)(F)F)c4)[C@H](Cc4ccccc4)C3)CC2)C1 (stereo partly drawn) [Compound 341]
IC50 (NK1): 10 nM
IC50 (NK2): 2000 nM
IC50 (NK3): 3160 nM

O=C(c1cc(C(F)(F)F)cc(C(F)(F)F)c1)N1CCC(N2CCN(C3CCN(S(=O)(=O)c4cc(CCO)cs4)C3)CC2)CC1Cc1ccccc1 (stereo not drawn) [Compound 342]
IC50 (NK1): 5.01 nM
IC50 (NK2): 126 nM
IC50 (NK3): 398 nM

COc1cccc(NC(=O)N2CCC(N3CCN(C4CCN(C(=O)c5cc(C(F)(F)F)cc(C(F)(F)F)c5)C(Cc5ccccc5)C4)CC3)C2)c1 (stereo not drawn) [Compound 343]
IC50 (NK1): 31.6 nM
IC50 (NK2): 3160 nM
IC50 (NK3): 7940 nM

O=C(OCc1ccccc1C(=O)N1CCC(N2CCN([C@H]3CCN(C(=O)c4cc(C(F)(F)F)cc(C(F)(F)F)c4)[C@H](Cc4ccccc4)C3)CC2)C1)c1ccccc1 (stereo partly drawn) [Compound 346]
IC50 (NK1): 63.1 nM
IC50 (NK2): 1580 nM
IC50 (NK3): 1260 nM

COc1cccc(S(=O)(=O)N2CCC(N3CCN([C@H]4CCN(C(=O)c5cc(C(F)(F)F)cc(C(F)(F)F)c5)[C@H](Cc5ccccc5)C4)CC3)C2)c1 (stereo partly drawn) [Compound 347]
IC50 (NK1): 20 nM
IC50 (NK2): 631 nM
IC50 (NK3): 2510 nM

O=C(c1cc(C(F)(F)F)cc(C(F)(F)F)c1)N1CC[C@H](N2CCN(C3CCN(S(=O)(=O)c4cccc(O)c4)C3)CC2)C[C@H]1Cc1ccccc1 (stereo partly drawn) [Compound 348]
IC50 (NK1): 10 nM
IC50 (NK2): 316 nM
IC50 (NK3): 2000 nM

O=C(c1cc(C(F)(F)F)cc(C(F)(F)F)c1)N1CCC(N2CCN(C3CCN(C(CO)c4ccsc4)C3)CC2)CC1Cc1ccccc1 (stereo not drawn) [Compound 349]
IC50 (NK1): 31.6 nM
IC50 (NK2): 2510 nM
IC50 (NK3): 6310 nM

COc1ccc(C(=O)N2CCC(N3CCN([C@H]4CCN(C(=O)c5cc(C(F)(F)F)cc(C(F)(F)F)c5)[C@H](Cc5ccccc5)C4)CC3)C2)s1 (stereo partly drawn) [Compound 350]
IC50 (NK1): 12.6 nM
IC50 (NK2): 5010 nM
IC50 (NK3): 5010 nM

O=C(c1cc(C(F)(F)F)cc(C(F)(F)F)c1)N1CC[C@H](N2CCN(C3CCN(S(=O)(=O)c4ccc(CCO)s4)C3)CC2)C[C@H]1Cc1ccccc1 (stereo partly drawn) [Compound 351]
IC50 (NK1): 10 nM
IC50 (NK2): 251 nM
IC50 (NK3): 1000 nM

O=C(c1cc(COCc2ccccc2)cs1)N1CCC(N2CCN([C@H]3CCN(C(=O)c4cc(C(F)(F)F)cc(C(F)(F)F)c4)[C@H](Cc4ccccc4)C3)CC2)C1 (stereo partly drawn) [Compound 352]
IC50 (NK1): 63.1 nM
IC50 (NK2): 6310 nM
IC50 (NK3): 3160 nM

O=C(c1sccc1COCc1ccccc1)N1CCC(N2CCN([C@H]3CCN(C(=O)c4cc(C(F)(F)F)cc(C(F)(F)F)c4)[C@H](Cc4ccccc4)C3)CC2)C1 (stereo partly drawn) [Compound 353]
IC50 (NK1): 25.1 nM
IC50 (NK2): 3160 nM
IC50 (NK3): 794 nM

COc1ccc(NC(=NC#N)N2CCC(N3CCN([C@H]4CCN(C(=O)c5cc(C(F)(F)F)cc(C(F)(F)F)c5)[C@H](Cc5ccccc5)C4)CC3)C2)cc1 (stereo partly drawn) [Compound 355]
IC50 (NK1): 15.8 nM
IC50 (NK2): 5010 nM
IC50 (NK3): 6310 nM

O=C(C1CCCCC1)N1CCC(N2CCN(C3CCN(C(=O)c4cc(C(F)(F)F)cc(C(F)(F)F)c4)C(Cc4ccc(F)c(F)c4)C3)CC2)C1 (stereo not drawn) [Compound 358]
IC50 (NK1): 12.6 nM
IC50 (NK2): 3160 nM
IC50 (NK3): 1580 nM

O=C(c1ccc(CCO)s1)N1CCC(N2CCN(C3CCN(C(=O)c4cc(C(F)(F)F)cc(C(F)(F)F)c4)C(Cc4ccccc4)C3)CC2)C1 (stereo not drawn) [Compound 359]
IC50 (NK1): 12.6 nM
IC50 (NK2): 2510 nM
IC50 (NK3): 2000 nM

O=C(c1sccc1CO)N1CCC(N2CCN([C@H]3CCN(C(=O)c4cc(C(F)(F)F)cc(C(F)(F)F)c4)[C@H](Cc4ccccc4)C3)CC2)C1 (stereo partly drawn) [Compound 360]
IC50 (NK1): 10 nM
IC50 (NK2): 3980 nM
IC50 (NK3): 1000 nM

O=C(c1sccc1CCOCc1ccccc1)N1CCC(N2CCN([C@H]3CCN(C(=O)c4cc(C(F)(F)F)cc(C(F)(F)F)c4)[C@H](Cc4ccccc4)C3)CC2)C1 (stereo partly drawn) [Compound 361]
IC50 (NK1): 79.4 nM
IC50 (NK2): 1000 nM
IC50 (NK3): 631 nM

O=C(c1cc(CCOCc2ccccc2)cs1)N1CCC(N2CCN([C@H]3CCN(C(=O)c4cc(C(F)(F)F)cc(C(F)(F)F)c4)[C@H](Cc4ccccc4)C3)CC2)C1 (stereo partly drawn) [Compound 362]
IC50 (NK1): 126 nM
IC50 (NK2): 2510 nM
IC50 (NK3): 2510 nM

O=C(c1cc(CCO)cs1)N1CCC(N2CCN([C@H]3CCN(C(=O)c4cc(C(F)(F)F)cc(C(F)(F)F)c4)[C@H](Cc4ccccc4)C3)CC2)C1 (stereo partly drawn) [Compound 363]
IC50 (NK1): 12.6 nM
IC50 (NK2): 3980 nM
IC50 (NK3): 1580 nM

O=C(c1sccc1CCO)N1CCC(N2CCN([C@H]3CCN(C(=O)c4cc(C(F)(F)F)cc(C(F)(F)F)c4)[C@H](Cc4ccccc4)C3)CC2)C1 (stereo partly drawn) [Compound 369]
IC50 (NK1): 12.6 nM
IC50 (NK2): 3980 nM
IC50 (NK3): 631 nM
